Measured values reported in patent US20250302788A1, “COMPOSITION COMPRISING CREATINE FOR USE IN THE TREATMENT OF POST VIRAL FATIGUE SYNDROME” (Alzchem Trostberg GmbH, priority 2022, published 2025).
Like-named read-outs stand apart in the source and are kept apart here.

What was measured:
Post-COVID patients = test: MFI-20 fatigue test, Example 2; type: in vivo, human; settings: plus breathing exercise
Description: The patient-reported outcomes for COVID-19-related signs and symptoms (e.g. headache, concentrating difficulties, anosmia, ageusia) were evaluated with VAS scale. Fatigue, comprising the conditions of the group general fatigue, physical fatigue, metal fatigue, reduced activity, and reduced motivation, was evaluated with a multidimensional fatigue inventory test (MFI-20 test, Smets E. M. et al., J. Psychosom. Res. 1995, 39 (3), 315).

[1] = both, human, in vivo, 3 months
[2] = both, human, in vivo
PCFS patients [3] = test: Incremental treadmill test until exhaustion, Example 3; type: in vivo, human
Description: In addition the time to exhaustion of the patients was evaluated by an incremental test until exhaustion on a motorized treadmill.

PCFS patients [4] = type: in vivo, human
PCFS patients [5] = test: MFI-20 fatigue test, Example 3; type: in vivo, human

SMILES: CN(CC(=O)O)C(=N)N.O [Creatine + Breathing Exercise, creatine monohydrate]
- General fatigue (MFI-20 score) (Post-COVID patients; 3 months): 12.3
- Mental fatigue (MFI-20 score) (Post-COVID patients; 3 months): 11.5
- Physical fatigue (MFI-20 score) (Post-COVID patients; 3 months): 12.2
- Reduced activity (MFI-20 score) (Post-COVID patients; 3 months): 12.8
- Reduced motivation (MFI-20 score) (Post-COVID patients; 3 months): 12.8
- General fatigue (MFI-20 score) (Post-COVID patients; Baseline): 11.5
- Mental fatigue (MFI-20 score) (Post-COVID patients; Baseline): 11.8
- Physical fatigue (MFI-20 score) (Post-COVID patients; Baseline): 12.3
- Reduced activity (MFI-20 score) (Post-COVID patients; Baseline): 12.5
- Reduced motivation (MFI-20 score) (Post-COVID patients; Baseline): 13.5
- Cohen's effect size (d) for creatine increment, right frontal grey matter [1]: 1.76
- Cohen's effect size (d) for creatine increment, vastus medialis muscle [1]: 0.77

SMILES: O=C[C@H](O)[C@@H](O)[C@H](O)[C@H](O)CO [Glucose, glucose, reference compound]
- Total creatine, Left frontal grey matter [2]: 6.8 ± 0.4 mM
- Total creatine, Left frontal white matter [2]: 5.8 ± 0.4 mM
- Total creatine, Left mesial grey matter [2]: 7.6 ± 0.7 mM
- Total creatine, Left paracentral grey matter [2]: 7.0 ± 0.9 mM
- Total creatine, Left parietal white matter [2]: 5.4 ± 0.6 mM
- Total creatine, Left precentral white matter [2]: 5.6 ± 0.6 mM
- Total creatine, Right frontal grey matter [2]: 7.0 ± 0.9 mM
- Total creatine, Right frontal white matter [2]: 5.6 ± 0.8 mM
- Total creatine, Right mesial grey matter [2]: 7.3 ± 0.6 mM
- Total creatine, Right paracentral grey matter [2]: 6.4 ± 0.7 mM
- Total creatine, Right parietal white matter [2]: 5.2 ± 0.7 mM
- Total creatine, Right precentral white matter [2]: 5.4 ± 0.6 mM
- Total creatine, Thalamus [2]: 5.5 ± 0.5 mM
- Total creatine, Vastus medialis muscle [2]: 30.1 ± 12.7 mM
- Total creatine, Left frontal grey matter ([2]; 8 weeks): 6.3 ± 0.9 mM
- Total creatine, Left frontal white matter ([2]; 8 weeks): 5.6 ± 1.0 mM
- Total creatine, Left mesial grey matter ([2]; 8 weeks): 7.4 ± 0.6 mM
- Total creatine, Left paracentral grey matter ([2]; 8 weeks): 6.9 ± 0.7 mM
- Total creatine, Left parietal white matter ([2]; 8 weeks): 5.3 ± 0.5 mM
- Total creatine, Left precentral white matter ([2]; 8 weeks): 5.6 ± 0.5 mM
- Total creatine, Right frontal grey matter ([2]; 8 weeks): 7.0 ± 0.7 mM
- Total creatine, Right frontal white matter ([2]; 8 weeks): 5.6 ± 0.8 mM
- Total creatine, Right mesial grey matter ([2]; 8 weeks): 7.0 ± 1.0 mM
- Total creatine, Right paracentral grey matter ([2]; 8 weeks): 6.2 ± 1.1 mM
- Total creatine, Right parietal white matter ([2]; 8 weeks): 5.2 ± 0.7 mM
- Total creatine, Right precentral white matter ([2]; 8 weeks): 5.3 ± 0.7 mM
- Total creatine, Thalamus ([2]; 8 weeks): 5.5 ± 0.7 mM
- Total creatine, Vastus medialis muscle ([2]; 8 weeks): 28.5 ± 9.2 mM
- Time to exhaustion (PCFS patients [3]; 8 weeks): 908 s
- Time to exhaustion (PCFS patients [3]; Baseline): 915 s
- Change of time to exhaustion (PCFS patients [3]; post-administration (8 weeks) vs baseline): -7 s
- Ageusia (VAS scale) (PCFS patients [4]; 8 weeks): 0.6
- Anosmia (VAS scale) (PCFS patients [4]; 8 weeks): 1.0
- Concentrating difficulties (VAS scale) (PCFS patients [4]; 8 weeks): 3.0
- Headache (VAS scale) (PCFS patients [4]; 8 weeks): 2.8
- Malaise (VAS scale) (PCFS patients [4]; 8 weeks): 3.0
- Ageusia (VAS scale) (PCFS patients [4]; Baseline): 2.2
- Anosmia (VAS scale) (PCFS patients [4]; Baseline): 2.6
- Concentrating difficulties (VAS scale) (PCFS patients [4]; Baseline): 4.4
- Headache (VAS scale) (PCFS patients [4]; Baseline): 3.8
- Malaise (VAS scale) (PCFS patients [4]; Baseline): 4.6
- General fatigue (MFI-20 score) (PCFS patients [5]; 8 weeks): 11.6
- Mental fatigue (MFI-20 score) (PCFS patients [5]; 8 weeks): 11.0
- Physical fatigue (MFI-20 score) (PCFS patients [5]; 8 weeks): 12.6
- Reduced activity (MFI-20 score) (PCFS patients [5]; 8 weeks): 12.6
- Reduced motivation (MFI-20 score) (PCFS patients [5]; 8 weeks): 10.8
- General fatigue (MFI-20 score) (PCFS patients [5]; Baseline): 12.0
- Mental fatigue (MFI-20 score) (PCFS patients [5]; Baseline): 11.4
- Physical fatigue (MFI-20 score) (PCFS patients [5]; Baseline): 12.8
- Reduced activity (MFI-20 score) (PCFS patients [5]; Baseline): 12.6
- Reduced motivation (MFI-20 score) (PCFS patients [5]; Baseline): 10.0
